Source: patent publication US20250082598A1, “Melafenoxate, 2-(1-adamantylamino)ethyl 2-(4-chlorophenoxy)acetate and derivatives thereof for treating circadian rhythm sleep disorders with neurodegenerative diseases such as Alzheimer's disease” (NLS Pharmaceutics AG, priority 2021, published 2025)

Legend:
5-HT1A (h) = target: T1, 5-HT1A (h) (Homo sapiens, UniProt P08908); assay: Radioligand binding, 5-HT1A (h); conditions: 10^−5 M; agonist radioligand
T1 construct: CEREP (Eurofins, France)
T1 sequence (P08908 1-422): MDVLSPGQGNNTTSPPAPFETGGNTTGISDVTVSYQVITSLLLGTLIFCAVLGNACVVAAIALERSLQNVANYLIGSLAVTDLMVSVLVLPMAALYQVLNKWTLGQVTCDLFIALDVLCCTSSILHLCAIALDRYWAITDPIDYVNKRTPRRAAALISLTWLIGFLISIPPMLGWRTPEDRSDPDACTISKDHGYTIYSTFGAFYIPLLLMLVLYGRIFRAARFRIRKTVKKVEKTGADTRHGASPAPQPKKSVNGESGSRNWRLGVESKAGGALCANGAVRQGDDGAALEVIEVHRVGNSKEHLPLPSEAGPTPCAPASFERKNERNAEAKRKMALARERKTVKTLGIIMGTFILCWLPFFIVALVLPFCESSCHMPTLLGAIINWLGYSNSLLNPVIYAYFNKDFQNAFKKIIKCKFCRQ
Method: (§1) Melafenoxate was tested at 10^−5 M, calculated as a % inhibition of control specific binding of a radioactively labeled ligand specific for each target.
(§2) This binding profile panel was broadly defined with roughly an equal number of selective, central and peripheral therapeutically relevant targets, including native animal tissues, radioligands and specific enzymes involved in cell cycle regulation in accordance with Eurofins Standard Operating Procedure.
(§3) For radioligand binding experiments, the half maximal inhibitory concentration (IC50) and the half maximal effective concentration (EC50) values were determined (via computer software) by nonlinear regression analysis of the competition curves using Hill equation curve fitting. The inhibition constants (Ki) were calculated using the Cheng-Prusoff equation (Ki=IC50/(1+(L/KD)), where L is the concentration of radioligand in the assay, and KD is the affinity of the radioligand for the receptor.^49
(§4) The results are expressed as a % control specific binding ([measured specific binding/control specific binding]×100) and as a % inhibition of control specific binding (100−[(measured specific binding/control specific binding)×100]) obtained in the presence of the test compounds. […]

NET (h) = target: T2, NET (h) (Homo sapiens, UniProt P23975); assay: Radioligand binding, NET (h); conditions: 10^−5 M; antagonist radioligand
T2 construct: Eurofins
Method: as §1, §2, §3, §4

T2 sequence (P23975 whole entry): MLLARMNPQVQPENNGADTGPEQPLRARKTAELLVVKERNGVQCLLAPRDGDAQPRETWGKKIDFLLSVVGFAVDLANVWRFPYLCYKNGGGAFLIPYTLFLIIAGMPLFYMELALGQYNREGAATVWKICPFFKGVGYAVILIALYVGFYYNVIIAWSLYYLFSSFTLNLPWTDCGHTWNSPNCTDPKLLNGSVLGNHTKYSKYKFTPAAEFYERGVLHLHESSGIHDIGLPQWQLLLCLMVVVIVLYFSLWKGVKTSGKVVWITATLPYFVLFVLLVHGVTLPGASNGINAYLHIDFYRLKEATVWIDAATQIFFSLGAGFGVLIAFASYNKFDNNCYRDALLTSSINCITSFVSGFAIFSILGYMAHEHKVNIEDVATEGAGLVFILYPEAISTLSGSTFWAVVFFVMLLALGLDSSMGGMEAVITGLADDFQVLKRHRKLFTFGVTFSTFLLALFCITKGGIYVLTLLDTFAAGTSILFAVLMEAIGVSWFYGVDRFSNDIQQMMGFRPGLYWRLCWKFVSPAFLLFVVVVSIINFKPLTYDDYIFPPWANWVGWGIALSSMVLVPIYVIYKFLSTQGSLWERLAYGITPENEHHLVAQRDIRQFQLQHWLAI

O=C(COc1ccc(Cl)cc1)OCCNC12CC3CC(CC(C3)C1)C2 [Melafenoxate, 2-(1-adamantylamino)ethyl 2-(4-chlorophenoxy)acetate]
inhibition at 10 µM (5-HT1A (h)): 10.4%
inhibition at 10 µM (NET (h)): 16.5%
